# From PMC8480901 (PLoS ONE, 2021)
# Values joined by “and” are separate entries in the source; they are usually repeats but may differ in a detail not shown here. Equal values may be shown once. Read-outs that look alike come from different tables or passages of the source.
# What was measured:
# [1] = Pharmacokinetics in plasma and epithelial lining fluid of mice after a single SC dose; assay type: in vivo, BALB/c mice; settings: for AUC(0-t): read-out: AUC0-24h, mean±SEM; for Cmax: read-out: Cmax, mean±SEM
# Experimental: Pharmacokinetic parameters were evaluated as previously described. […] Plasma samples were analyzed by liquid chromatography with […] mass spectrometry (Q Exactive Plus; Thermo Fisher Scientific).
# Area under the curve (AUC) values were determined using the linear trapezoidal method.
# human neutrophils = assay: Cytotoxicity in human neutrophils (CellTiter Glo); assay type: cell-based
# Experimental: For the chemotaxis and cytotoxicity evaluations, average relative light unit values were calculated from all untreated vehicle samples and, for each sample, percentage of vehicle value was calculated. The tested compound was considered cytotoxic if reduction from untreated vehicle was ≥20%.
# human PBMCs = assay: Cytotoxicity in human PBMCs (adenylate kinase release, ToxiLight); assay type: cell-based; settings: for fold-change of adenylate kinase release at test concentration vs vehicle control, Mean ± SEM: human PBMCs, n=2
# Experimental: The effect of t est compounds on cell viabilit y of J 774.2 macrophages and human PBMCs […]
# was determined b y comp aring th e aden yl ate kinas e signal obtain ed in the p resence of diff er ent concentrations of compounds with those obtained in DMSO (vehicle) control. Signals were […]
# divided,and the results were ex pressed as fold-change versus v ehicle con trol .
# [2] = system: TNF-α, IL-6, IL-1β, GM-CSF, CXCL-1, CXCL-2, CCL-2 and MMP-9 in lung tissue; assay: LPS-induced cytokines, chemokines and MMP-9 in mouse lung homogenates (Luminex, ELISA)
# Experimental: To induce pulmonary neutrophilia, mice in the control group received intranasal (IN) 50 μL saline, and all other animals received 5 μg LPS/50 μL saline IN per mouse.
# After bronchoalveolar lavage, lungs were removed, weighed, snap frozen, and stored at −80°C until analysis. To homogenize the tissue, the frozen lungs were thawed and placed in Precellys CK28 Hard Tissue tubes (BERTIN Instruments, Montigny-le-Bretonneux, France) in 1 mL PBS (Gibco, Life Technologies, Paisley, UK) supplemented with protease inhibitors (Halt™ Protease Inhibitor Cocktail [100×]; Thermo Fisher Scientific, Rockford, IL, USA). A Precellys homogenizer (BERTIN Instruments) was used, shaking at 6800 rpm for three 30-second pulses separated by 15-second pauses. After homogenization, samples were centrifuged at 18,000×g for 10 minutes at 4°C, and the supernatants were collected for analysis.
# Concentrations of tumor necrosis factor (TNF)-α, IL-6, granulocyte-macrophage colony-stimulating factor (GM-CSF), chemokine (C-X-C motif) ligand (CXCL)-1, CXCL-2, and chemokine (C-C motif) ligand (CCL)-2 in mouse lung homogenates were analyzed with the Mouse Premixed Multi-Analyte Kit (R&D Systems, Minneapolis, MN, USA) per the manufacturer’s protocol and using a Luminex 200 System (Luminex Corporation, Austin, TX, USA). Cytokine and chemokine concentrations were determined from blank-corrected median fluorescence intensity of each sample via xPONENT® software (Luminex Corporation), interpolating from standard curves generated with a 5-parameter logistic curve-fit.
# Mouse Total MMP (matrix metalloprotease)-9 and IL-1β/IL-1F2 DuoSet ELISA (enzyme-linked immunosorbent assay) kits (R&D Systems) were used to measure concentrations of MMP-9 and IL-1β, respectively, in lung homogenates per the manufacturer’s protocols. Absorbance at 450 nm was measured using the SpectraMax i3 (Molecular Devices, San Jose, CA, USA). Concentrations of MMP-9 and IL-1β in samples were determined by interpolation from standard curves.
# Differences between treated versus vehicle groups were determined using the Mann-Whitney test and were considered statistically significant when P<0.05. Outliers in the analysis of cytokine and chemokine concentrations were identified using the Grubbs test. No criteria were set for inclusion/exclusion of animals during the experiment or data points during the analysis.
# [3] = female, BALB/c, mouse, epithelial lining fluid (ELF), ELF, mice, single 35 mg/kg SC
# [4] = female, BALB/c, mouse, plasma, mice, single 35 mg/kg SC
# [5] = all doses (10, 30, 100 mg/kg SC)
# [6] = all doses tested (10, 30, 100 mg/kg SC), vs vehicle control
# [7] = lung homogenate, LPS, 10 mg/kg, individual animal, listed as Lef
compound,measurement,setting,value
C=C[C@]1(C)C[C@@H](OC(=O)CS[C@@H]2CC[C@@H](N)C[C@H]2O)[C@]2(C)[C@H](C)CC[C@]3(CCC(=O)[C@H]32)[C@@H](C)[C@@H]1O [Lefamulin],plasma AUC0-24h in mice compared with exposures in healthy volunteers after a single dose of 150 mg IV,"[1]; 35 mg/kg SC in mice, human data ref 29",comparable
same,"AUC0-24h/Dose, mean","[1]; ELF, mice, single 35 mg/kg SC",0.36 (μg∙h/mL)/(mg/kg)
same,Kp,"[1]; female, BALB/c, mouse, epithelial lining fluid (ELF) / plasma, mice, single 35 mg/kg SC, read-out: AUC ratio for ELF to plasma",~2
same,Tmax,[1]; [3],30 min
same,AUC(0-t),[1]; [3],12600 ± 1170 ng·h/mL
same,Cmax,[1]; [3],2160 ± 500 ng/mL
same,Tmax,[1]; [4],30 min
same,AUC(0-t),[1]; [4],6250 ± 930 ng·h/mL
same,Cmax,[1]; [4],1330 ± 180 ng/mL
same,distribution from plasma to ELF (penetration into the lung compartment),"[1]; mice, single SC dose 35 mg/kg",rapid penetration
same,"AUC0-24h/Dose, mean","[1]; plasma, mice, single 35 mg/kg SC",0.18 (μg∙h/mL)/(mg/kg)
same,"% viability at test concentration vs vehicle control, Mean ± SEM","human neutrophils; 0.03 µM, n=3, percentage of RLU",105 ± 1.36%
same,"% viability at test concentration vs vehicle control, Mean ± SEM","human neutrophils; 0.1 µM, n=3",106 ± 1.34%
same,"% viability at test concentration vs vehicle control, Mean ± SEM","human neutrophils; 0.3 µM, n=3",105 ± 2.39%
same,"% viability at test concentration vs vehicle control, Mean ± SEM","human neutrophils; 1 µM, n=3",103 ± 4.22%
same,"% viability at test concentration vs vehicle control, Mean ± SEM","human neutrophils; 3 µM, n=3",103 ± 3.07%
same,"% viability at test concentration vs vehicle control, Mean ± SEM","human neutrophils; 10 µM, n=3",102 ± 2.98%
same,cytotoxic effects,"human neutrophils; 30 μM, cytotoxic if reduction from vehicle ≥20%",no cytotoxic effects
same,"% viability at test concentration vs vehicle control, Mean ± SEM","human neutrophils; 30 µM, n=3",101 ± 2.58%
same,"% viability at test concentration vs vehicle control, Mean ± SEM","human neutrophils; 100 µM, n=3",86 ± 2.99%
same,"% viability at test concentration vs vehicle control, Mean ± SEM","human neutrophils; 100 µM, n=3, listed as lefamulin",86%
same,cell viability,"human PBMCs; PBMCs, 100 μM",reduced
same,"fold-change of adenylate kinase release at test concentration vs vehicle control, Mean ± SEM",human PBMCs; 0.03 µM,1.07 ± 0.03 fold-change
same,"fold-change of adenylate kinase release at test concentration vs vehicle control, Mean ± SEM",human PBMCs; 0.1 µM,1.04 ± 0.01 fold-change
same,"fold-change of adenylate kinase release at test concentration vs vehicle control, Mean ± SEM",human PBMCs; 0.3 µM,1.03 ± 0.02 fold-change
same,"fold-change of adenylate kinase release at test concentration vs vehicle control, Mean ± SEM",human PBMCs; 1 µM,1.00 ± 0.01 fold-change
same,"fold-change of adenylate kinase release at test concentration vs vehicle control, Mean ± SEM",human PBMCs; 3 µM,0.95 ± 0.01 fold-change
same,"fold-change of adenylate kinase release at test concentration vs vehicle control, Mean ± SEM",human PBMCs; 10 µM,0.93 ± 0.01 fold-change
same,"fold-change of adenylate kinase release at test concentration vs vehicle control, Mean ± SEM",human PBMCs; 30 µM,0.92 ± 0.03 fold-change
same,"fold-change of adenylate kinase release at test concentration vs vehicle control, Mean ± SEM",human PBMCs; 100 µM,1.20 ± 0.03 fold-change
same,"levels of all cytokines and chemokines assessed, as well as of MMP-9, in lung homogenate","[2]; 10, 30, and 100 mg/kg SC, vs vehicle",significantly reduced
same,MMP-9 levels in lung homogenate,[2]; 30 and 100 mg/kg SC,Significant reductions
same,IL-1β concentrations in lung homogenate,[2]; [5],dose-dependent effect
same,chemokines and GM-CSF in lung homogenate,[2]; [5],Significant reductions
same,IL-6 concentrations in lung homogenate,[2]; [6],significantly reduced
same,TNF-α concentrations in lung homogenate,[2]; [6],significantly reduced
same,IL-1β concentrations in lung homogenate,"[2]; highest dose, 100 mg/kg SC",significant inhibition
same,CCL2 % reduction,"[2]; lung homogenate, LPS, 10 mg/kg",93%
same,CXCL1 % reduction,"[2]; lung homogenate, LPS, 10 mg/kg",62%
same,CXCL2 % reduction,"[2]; lung homogenate, LPS, 10 mg/kg",73%
same,GM-CSF % reduction,"[2]; lung homogenate, LPS, 10 mg/kg",85%
same,IL-1β % reduction,"[2]; lung homogenate, LPS, 10 mg/kg",-19%
same,IL-6 % reduction,"[2]; lung homogenate, LPS, 10 mg/kg",106%
same,MMP9 % reduction,"[2]; lung homogenate, LPS, 10 mg/kg",8%
same,TNFα % reduction,"[2]; lung homogenate, LPS, 10 mg/kg",79%
same,CCL2,[2]; [7],1377.65 pg/mL and 537.39 pg/mL and 646.70 pg/mL and 438.83 pg/mL and 518.31 pg/mL and 1456.64 pg/mL and 908.74 pg/mL and 229.87 pg/mL
same,CXCL1,[2]; [7],6971.93 pg/mL and 4329.90 pg/mL and 5523.90 pg/mL and 4582.09 pg/mL and 5582.50 pg/mL and 5633.76 pg/mL and 4136.19 pg/mL and 3104.94 pg/mL
same,CXCL2,[2]; [7],5052.98 pg/mL and 3065.52 pg/mL and 3267.04 pg/mL and 2748.29 pg/mL and 3142.03 pg/mL and 3891.00 pg/mL and 3712.25 pg/mL and 1806.80 pg/mL
same,GM-CSF,[2]; [7],67.71 pg/mL and 29.84 pg/mL and 24.75 pg/mL and 26.44 pg/mL and 92.13 pg/mL and 45.24 pg/mL
same,IL-1β,[2]; [7],13048 pg/mL and 11802 pg/mL and 8955 pg/mL and 11618 pg/mL and 14924 pg/mL and 15796 pg/mL and 14205 pg/mL and 13632 pg/mL
same,IL-6,[2]; [7],250.42 pg/mL and 122.57 pg/mL and 71.56 pg/mL and 75.97 pg/mL and 378.35 pg/mL and 273.00 pg/mL and 109.22 pg/mL
same,MMP9,[2]; [7],2581 pg/mL and 2222 pg/mL and 2051 pg/mL and 2196 pg/mL and 2373 pg/mL and 1878 pg/mL and 2354 pg/mL and 2294 pg/mL
same,TNFα,[2]; [7],82.13 pg/mL and 385.92 pg/mL and 198.20 pg/mL and 183.71 pg/mL and 132.63 pg/mL and 135.37 pg/mL and 337.98 pg/mL and 306.86 pg/mL
same,CCL2 Mean,"[2]; lung homogenate, LPS, 10 mg/kg, mean of 8",764 pg/mL
